Data from patent publication US8394362B2, “Gem difluorinated C-glycopeptides, their preparation and their use for the preservation of biological materials and/or in cryosugery” (priority 2004, dated 2013).
Where two headings read alike, the source gives them in different places.

Columns and labels:
[1] = test system: CCD-27Sk fetal fibroblast skin cells
Excerpt: […] Materials

embryonic fibroblasts = conditions: 15 mg/mL; 1 mM H2O2; 37° C.; after 10 hours; serum-free medium with 0.5 mM EDTA
HEK 293 cells = assay: Preservation of HEK 293 kidney cells at low temperatures (Trypan blue cell count); format: cell-based
Procedure: The cells were then diluted to 75,000 cells/mL. Subsequently they were distributed over 6 plates with six 3 mL-wells per plate. This concentration is a good compromise between a concentration sufficiently low to prevent cell death by autocytotoxicity and sufficiently high to permit cell sampling and counting without any pre-concentration likely to reduce their survival. Each plate had two control wells not containing product 15, two wells with concentrations of product 15 adjusted to 0.01 mg/mL, and two others with 0.1 mg/mL. Each plate was then incubated at the following temperatures: 4° C., 2° C., 0° C., −2° C., −4° C., and −20° C. Each well was subsequently sampled at the following incubation times: 2, 8, and 22 hours.

blood platelets = assay: Preservation of blood platelets: platelet clustering over 21 days; format: cell-based
Procedure: The purpose is to test product 15 on the preservation of blood platelets to improve current protocols which only allow their preservation for 5 days. The test was conducted at four different temperatures 22° C., 15° C., 4° C. and finally 0° C. Platelet follow-up lasted 21 days to examine platelet clustering. Clustering is one of the first and most definitive indicators of platelet degradation. During their degradation, the platelets become active, lose their morphology, become fibrous, form clusters and finally degenerate. A platelet count is made but the result is rather more based on the extent of clustering.

H9c2(2-1) cells [2] = format: cell-based, rat
Procedure: The test was conducted on rat heart myoblasts to consider application of these compounds for the preservation of organs such as the heart for subsequent transplant.
Another test was conducted on myoblasts at temperatures of 3° C. and −3° C. The purpose of the experiment this time was to increase the concentrations of glycoproteins 15 and 30 equimolar fashion (the molecular weight of the dimer being 2× greater than that of the monomer). The increase in concentration was 2.5 mg/mL for monomer 15 and 5 mg/mL for dimer 30. The temperatures were chosen over a range frequently used for the preservation of cells and tissues. The idea being subsequently to continue this experiment directly on tissues.

erythrocytes = assay: Preservation of erythrocytes: haemolysis at different temperatures; format: cell-based, human
Procedure: The death of erythrocytes can be ascertained by rupture of the plasma membrane. This phenomenon is called haemolysis. Detection of haemolysis is the chief tool used in this experiment to determine the effect of product 15 at different temperatures on the preservation of erythrocytes. Blood sampling→Aliquots→Addition of AAGP (compound 15)→Various temperatures→Observation of haemolysis Product 15 was tested at concentrations of 0 mg/mL, 0.1 mg/mL, 1.0 mg/mL at temperatures of 3, 0, −3, −5, −10, −15, −23, −78° C. From a sample of human blood in a borosilicate heparinized tube, microtubes of 275 μL were filled to full capacity. One third of the microtubes were completed with 2.75 μL of product 15 (10 mg/mL in H2O), and one third of the microtubes were completed with 27.5 μL of product 15 (10 mg/mL in H2O). The blood was divided among the tubes to full capacity to prevent air contact as much as possible. […] The microtubes were frozen on a microtube support and the experiment was conducted using a slow-freeze apparatus at −78° C., whilst thawing was always conducted at room temperature on the microtube rack. After thawing, the microtubes were delicately homogenized by inverting a few times and a sample of erythrocytes was taken. […] Co is the initial Ery count • Cexp is the experimental Ery count Materials

H9c2(2-1) cells [3] = format: cell-based, rat; remark: listed apart in the source
[4] = 0.1 mg/mL, 40 min, −78° C. with slow cooling
[5] = 0.1 mg/mL, 2 h, 3, 0, −3, −5 and −10° C.
[6] = 0.1 mg/mL, 4 h, 3, 0, −3, −5 and −10° C.
[7] = 0.1 mg/mL, 9 h, 3, 0, −3, −5 and −10° C.
[8] = 0.1 mg/mL, 24 h, 3, 0, −3, −5 and −10° C.
[9] = 1.0 mg/mL, 40 min, −78° C. with slow cooling
[10] = 1.0 mg/mL, 2 h, 3, 0, −3, −5 and −10° C.
[11] = 1.0 mg/mL, 4 h, 3, 0, −3, −5 and −10° C.
[12] = 1.0 mg/mL, 9 h, 3, 0, −3, −5 and −10° C.
[13] = 1.0 mg/mL, 24 h, 3, 0, −3, −5 and −10° C.

C[C@H](NC(=O)[C@H](C)NC(=O)[C@@H](N)CCCCNC(=O)C(F)(F)C1(O)O[C@H](CO)[C@H](O)[C@H](O)[C@H]1O)C(=O)O (stereo partly shown) [product 15]
preservation of skin fibroblasts, overall ([1]; 5 mg/mL (8.6 mM), 22, 3, −3, −20° C.): better preservation in the presence of product 15 at all temperatures except at −20 °C | survival rates over time compared with control ([1]; 5 mg/mL, 22° C., 3° C., −3° C. (FIGS. 48 to 50)): much better survival rates | cell preservation with or without product ([1]; 5 mg/mL, 8 hours (FIG. 44), entire temperature range): no difference is found | cell survival rate compared with control ([1]; 5 mg/mL, 20 hours (FIG. 46)): better cell survival rate with monomer 15 than with the control | survival rate ([1]; 5 mg/mL, 20 hours (FIG. 46), −3° C.): 50% | cell preservation compared with control ([1]; 5 mg/mL, after 12 hours, 22° C. and −3° C.): better preservation | cell survival compared with control ([1]; 5 mg/mL, after 30 hours (FIG. 47), especially at 3° C.): distinct improvement | survival ([1]; 5 mg/mL, after 30 hours (FIG. 47), −3° C.): 70% | cell fate on freezing ([1]; 5 mg/mL, −20° C.): death of the cells after thawing | survival ([1]; 10 mg/mL, 15° C., after four days, low-serum media): 46% | cells preserved ([1]; 10 mg/mL, 37° C., after four days, low-serum media): approximately 100% | cell morphology ([1]; 10 mg/mL, Day 1 (FIG. 55)): preserve a spherical shape and maintain their integrity | cell survival rate versus concentration ([1]; 3 and −3° C., 20 and 34 hours, up to 15 mg/mL): improves cell survival rate | protective effect on cells ([1]; 3 and −3° C., concentrations up to 15 mg/mL, after 34 hours): ~100% | survival (embryonic fibroblasts): approximately 80% | cell survival compared with negative control (HEK 293 cells; 0.01 mg/mL): does not appear to improve cell survival | cell survival rate compared with negative control (HEK 293 cells; 0.10 mg/mL, five of six temperatures (4, 2, 0, −2, −4, −20° C.), 2, 8, 22 h): led to the best cell survival rates even if the improvement remained low | cell appearance and Trypan blue uptake after thawing (HEK 293 cells; −20° C., after two hours): maintained the appearance of spherical retractile cells and did not absorb Trypan blue | cells remaining after re-incubation (HEK 293 cells; −20° C., eight hours' incubation, both concentrations (0.01 and 0.1 mg/mL)): complete disappearance of all cells | platelet clustering (blood platelets; 0° C., with or without glycoprotein): no clustering is seen | platelet clustering (blood platelets; 4° C., irrespective of concentrations): almost no clustering is observed | platelet clustering compared with control (blood platelets; 15° C., over time): a greater increase in clustering is observed in the control than in the samples containing the compound | time up to which samples do not show any platelet clusters (blood platelets; 22° C., 1 mg/mL and 4 mg/mL): up to 7 days | platelet clustering (blood platelets; 22° C., 4 mg/mL (most concentrated samples)): the least clustering | platelet clustering compared with control (blood platelets; 22° C., 13, 17 and 21 days): true inhibition of platelet clustering | survival rate relative to control (control 19%) (H9c2(2-1) cells [2]; 3° C. (FIG. 42 as printed), after 8 hours, monomer […], dimer 5 mg/mL): more than twice as high | cells preserved (H9c2(2-1) cells [2]; after 16 hours, FIGS. 41 and 42, monomer […], dimer 5 mg/mL): approximately 90% | myoblasts still living (H9c2(2-1) cells [2]; after 24 hours, FIGS. 41 and 42, monomer […], dimer 5 mg/mL): ~65% | efficacy versus concentration (H9c2(2-1) cells [2]; −3° C. (FIG. 43), 1 mg/mL versus 2.5 / 5 mg/mL): greater efficacy at higher concentrations | % Haemolysis (erythrocytes; [4]): 36% | % erythrocytes (erythrocytes; [4]): 64% | % Ery (erythrocytes; [5]): 100% | % Haemolysis (erythrocytes; [5]): 0% | % Ery (erythrocytes; 0.1 mg/mL, 2 h, −15° C.): 73% | % Haemolysis (erythrocytes; 0.1 mg/mL, 2 h, −15° C.): 27% | Number of erythrocytes (erythrocytes; 0.1 mg/mL, 2 h, −15° C.): 90 | % Ery (erythrocytes; [6]): 100% | % Haemolysis (erythrocytes; [6]): 0% | % Ery (erythrocytes; 0.1 mg/mL, 4 h, −15° C.): 0% | % Haemolysis (erythrocytes; 0.1 mg/mL, 4 h, −15° C.): 100% | Number of erythrocytes (erythrocytes; 0.1 mg/mL, 4 h, −15° C.): 0 | % Ery (erythrocytes; [7]): 100% | % Haemolysis (erythrocytes; [7]): 0% | % Ery (erythrocytes; 0.1 mg/mL, 9 h, −15° C.): 0% | % Haemolysis (erythrocytes; 0.1 mg/mL, 9 h, −15° C.): 100% | Number of erythrocytes (erythrocytes; 0.1 mg/mL, 9 h, −15° C.): 0 | % Ery (erythrocytes; [8]): 100% | % Haemolysis (erythrocytes; [8]): 0% | % Haemolysis (erythrocytes; [9]): 97% | % erythrocytes (erythrocytes; [9]): 3% | % Ery (erythrocytes; [10]): 100% | % Haemolysis (erythrocytes; [10]): 0% | % Ery (erythrocytes; 1.0 mg/mL, 2 h, −15° C.): 98% | % Haemolysis (erythrocytes; 1.0 mg/mL, 2 h, −15° C.): 2% | Number of erythrocytes (erythrocytes; 1.0 mg/mL, 2 h, −15° C.): 120 | % Ery (erythrocytes; [11]): 100% | % Haemolysis (erythrocytes; [11]): 0% | % Ery (erythrocytes; 1.0 mg/mL, 4 h, −15° C.): 100% | % Haemolysis (erythrocytes; 1.0 mg/mL, 4 h, −15° C.): 0% | Number of erythrocytes (erythrocytes; 1.0 mg/mL, 4 h, −15° C.): 133 | % Ery (erythrocytes; [12]): 100% | % Haemolysis (erythrocytes; [12]): 0% | % Ery (erythrocytes; 1.0 mg/mL, 9 h, −15° C.): 98% | % Haemolysis (erythrocytes; 1.0 mg/mL, 9 h, −15° C.): 2% | Number of erythrocytes (erythrocytes; 1.0 mg/mL, 9 h, −15° C.): 121 | % Ery (erythrocytes; [13]): 100% | % Haemolysis (erythrocytes; [13]): 0% | protection of erythrocytes (erythrocytes; temperature below −15° C., 1.0 mg/mL): no protection is observed | haemolysis (erythrocytes; temperature range of 2 to −10° C., 0 to 24 hours, with or without product): no haemolysis | protection of erythrocytes (erythrocytes; −15° C.): really protects the erythrocytes | protection of erythrocytes (erythrocytes; −15° C., 4 and 9 hours, 1.0 mg/mL): complete protection | protection of erythrocytes (erythrocytes; −15° C., after two hours, 0.1 mg/mL): partly protects the erythrocytes | protection of erythrocytes (erythrocytes; −15° C., after two hours, 1.0 mg/mL): completely | relation of % haemolysis to concentration (erythrocytes; −78° C. slow cooling, freezing point, after 40 minutes): direct correlation is observed between % haemolysis and concentrations of product 15 | number of living cells over incubation time (H9c2(2-1) cells [3]; 1 mg/mL, −3° C. (FIG. 40)): slow decrease over incubation time in the number of living cells | dependence of cell survival rate on concentration (H9c2(2-1) cells [3]; 0.1, 0.5 and 1 mg/mL): better results at 1 mg/mL than at 0.1 and 0.5 mg/mL | survival percentage over time (H9c2(2-1) cells [3]; main experiment, 1 mg/mL, 4° C., up to 45 hours): better survival percentage over the entire duration of the experiment | survival (H9c2(2-1) cells [3]; main experiment, 1 mg/mL, 22° C., after 45 hours): 65% | protective effect, monomer versus dimer (H9c2(2-1) cells [3]; main experiment, 1 mg/mL, after 16 hours, 4° C.): gives the best results | cell survival compared with control (H9c2(2-1) cells [3]; main experiment, 1 mg/mL, up to 8 hours, 22, 4, −3 and −10° C.): no significant difference | survival compared with control (H9c2(2-1) cells [3]; main experiment, 1 mg/mL, −10° C.): slight improvement | survival percentage (H9c2(2-1) cells [3]; preliminary experiment, 2° C. as printed (method −2° C.), 20 hours, 0.1 mg/mL): identical to the control
